According to patent US7728169B2, “Pharmaceutical compositions of isolated orthorhombic crystalline 4-[6-acetyl-3-[3-(4-acetyl-3-hydroxy-2-propylphenylthio)propoxy]-2-propylphenoxy]butyric acid and methods of use” (Medicinova, Inc., priority 2003, dated 2010):
In brackets after ≈: the same amount, converted by molar mass. Like-named read-outs stand apart in the source and are kept apart here.

Experiments:
[1] = Solubility compared to other polymorphs (solvent not given); type: physicochemical
[2] = Solubility of compound (1) in ethanol/water (2:1); type: physicochemical; conditions: 40° C., stirred one hour, listed as V (form A)
Experimental: Samples of compound (1) (5 g) were suspended in ethanol/water (2:1, 100 mL) and stirred for one hour at temperatures of 22° C., 30° C., and 40° C., respectively. The suspensions were filtered and the solids dried in a vacuum oven at room temperature overnight to give the insoluble material. The solubilities were calculated by subtractive means based on recovered material.

[3] = tested on: asthma and allergic diseases; experiment: Oral activity for treatment of asthma and allergic diseases; type: in vivo

Structure (SMILES): CCCc1c(SCCCOc2ccc(C(C)=O)c(OCCCC(=O)O)c2CCC)ccc(C(C)=O)c1O [Form V, 4-[6-acetyl-3-[3-(4-acetyl-3-hydroxy-2-propylphenylthio)propoxy]-2-propylphenoxy]butyric acid]
- solubility compared to other crystalline forms [1]: superior
- solubility compared to other crystalline forms ([1]; listed as form A): high
- Solubility [2]: 46 mg/mL (≈ 86.7 mM)

Structure (SMILES): CCCc1c(SCCCOc2ccc(C(C)=O)c(OCCCC(=O)O)c2CCC)ccc(C(C)=O)c1O [compound (1), 4-[6-acetyl-3-[3-(4-acetyl-3-hydroxy-2-propylphenylthio)propoxy]-2-propylphenoxy]butyric acid]
- oral activity for treatment of asthma and allergic diseases [3]: orally active
